The values that follow come from patent US7700552B2, “Macrocyclic inhibitors of hepatitis C virus” (Medivir AB, priority 2005, dated 2010).

Structures are written as SMILES.

Assay [1] has as its system HCV replicons (NS3-NS5B regions of HCV type 1b) in Huh-7 luc/neo cells. Put plainly: HCV replicon assay (Huh-Luc cells, luciferase readout). The note with it: Hepatitis C virus, Huh-7, 72 h, HCV type 1b replicon, three days incubation, luciferase activity. Type of assay: cell-based. The text has this:
The compounds of formula (I) were examined for activity in the inhibition of HCV RNA replication in a cellular assay. […] The cellular assay was based on a bicistronic expression construct, as described by Lohmann et al. (1999) Science vol. 285 pp. 110-113 with modifications described by Krieger et al. (2001) Journal of Virology 75: 4614-4624, in a multi-target screening strategy. In essence, the method was as follows.
The assay utilized the stably transfected cell line Huh-7 luc/neo (hereafter referred to as Huh-Luc). This cell line harbors an RNA encoding a bicistronic expression construct comprising the wild type NS3-NS5B regions of HCV type 1b translated from an Internal Ribosome Entry Site (IRES) from encephalomyocarditis virus (EMCV), preceded by a reporter portion (FfL-luciferase), and a selectable marker portion (neo^R, neomycine phosphotransferase). […]
The replicon cells were plated in 384 well plates in the presence of the test and control compounds which were added in various concentrations. Following an incubation of three days, HCV replication was measured by assaying luciferase activity (using standard luciferase assay substrates and reagents and a Perkin Elmer ViewLux™ ultraHTS microplate imager). […] The inhibitory activity of the compound on luciferase activity was monitored on the Huh-Luc cells, enabling a dose-response curve for each test compound.

For assay [2], the target named is T1, full-length hepatitis C NS3 protease enzyme with NS4A cofactor (HCV NS3/4A protease complexes) (Hepatitis C virus genotype 1a, UniProt P27958).
T1 construct: full-length hepatitis C NS3 protease enzyme
T1 sequence (P27958 1027-1657, one chain of several): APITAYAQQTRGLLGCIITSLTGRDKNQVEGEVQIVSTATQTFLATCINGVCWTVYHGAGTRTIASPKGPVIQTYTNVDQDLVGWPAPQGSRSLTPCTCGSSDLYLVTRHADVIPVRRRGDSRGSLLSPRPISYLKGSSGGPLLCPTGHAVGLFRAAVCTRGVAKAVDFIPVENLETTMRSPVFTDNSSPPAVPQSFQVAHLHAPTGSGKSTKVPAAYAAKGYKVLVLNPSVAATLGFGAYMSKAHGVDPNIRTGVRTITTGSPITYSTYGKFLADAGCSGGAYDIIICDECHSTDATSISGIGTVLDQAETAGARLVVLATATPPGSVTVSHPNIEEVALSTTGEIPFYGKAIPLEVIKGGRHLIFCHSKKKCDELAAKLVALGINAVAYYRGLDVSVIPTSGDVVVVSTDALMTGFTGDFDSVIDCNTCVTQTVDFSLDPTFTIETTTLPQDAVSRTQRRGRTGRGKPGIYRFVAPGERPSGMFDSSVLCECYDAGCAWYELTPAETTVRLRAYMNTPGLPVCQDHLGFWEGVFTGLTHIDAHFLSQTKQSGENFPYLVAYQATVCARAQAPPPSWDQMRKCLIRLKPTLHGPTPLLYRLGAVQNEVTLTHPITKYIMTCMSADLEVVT
Put plainly: HCV NS3/4A protease inhibition assay (enzymatic). The note with it: full-length NS3 1 nM, 25 μM NS4A cofactor, 0.5 μM depsipeptide substrate, 30° C., competitive inhibition model. Type of assay: biochemical. As to the method: [Landro, 1997 #Biochem 36 9340-9348]. […] The solutions were stored at −20° C. between measurements.
The final concentration of DMSO in the assay sample is adjusted to 3.3%. The rate of hydrolysis is corrected for inner filter effects according to published procedures. [Liu, 1999 Analytical Biochemistry 267 331-335]. […] A minimum of two replicates are performed for all measurements.

Turning to `COc1ccc2c(O[C@@H]3C[C@H]4C(=O)N[C@]5(C(=O)O)CC5/C=C\CCCCN(N(C)C)C(=O)[C@@H]4C3)cc(-c3ccccc3)nc2c1` (stereo partly shown) [Example 88, 13-Dimethylamino-17-(7-methoxy-2-phenyl-quinolin-4-yloxy-2,14-dioxo-3,13-diaza-tricyclo[13.3.0.0*4,6*]octadec-7-ene-4-carboxylic acid], the EC50 in assay [1] was 1000 to 10000 nM. The inhibition constant Ki in assay [2] fell in the range of 100 to 2000 nM.

In turn, `COc1ccc2c(O[C@@H]3C[C@H]4C(=O)N[C@]5(C(=O)NS(=O)(=O)C6CC6)CC5/C=C\CCCCN(N(C)C)C(=O)[C@@H]4C3)cc(-c3ccccc3)nc2c1` (stereo partly shown) [Example 89, Cyclopropanesulphonic acid [13-dimethylamino-17-(7-methoxy-2-phenyl-quinolin-4-yloxy)-2,14-dioxo-3,13-diaza-tricyclo[13.3.0.0*4,6*]octadec-7-ene-4-carbonyl]-amide] registered an EC50 in assay [1] of 0.5 to 49 nM. For the same compound, the inhibitory constant (Ki) in assay [2] lay in the range of 0.1 to 4.9 nM.
